In patent US10000507B2, “Furo- and thieno-pyridine carboxamide compounds useful as pim kinase inhibitors” (Incyte Corporation, priority 2013, dated 2018):

Legend:
Format in all cases: biochemical
Pim-3 = Pim-3 (Homo sapiens (Human), UniProt Q86V86); experiment: Pim-3 kinase assay; settings: 1 mM ATP, biotin-labeled BAD peptide substrate; read-out: Pim3 IC50
Procedure, shortened: (§1)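 Biotin-BAD peptide ([…]) phosphorylated with 1 mM ATP by 2.5 pM Pim-1 or 1.25 pM Pim-3, 1 h at 25 °C in Tris pH 7.5, MgCl2, DTT buffer. EDTA stop with anti-phospho-BAD (Ser112) antibody and AlphaScreen streptavidin donor/Protein-A acceptor beads; signal read after 1 h dark incubation.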

Pim-1 = Pim-1 (Homo sapiens (Human), UniProt P11309); experiment: Pim-1 kinase assay; settings: 1 mM ATP, biotin-labeled BAD peptide substrate; read-out: Pim1 IC50
Procedure, shortened: as §1

Pim-2 = Pim-2 (Homo sapiens (Human), UniProt Q9P1W9); experiment: Pim-2 kinase assay; settings: 1 mM ATP, fluorescein-labeled CREBtide peptide substrate; read-out: Pim2 IC50
Procedure, shortened: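 TR-FRET assay: 1 nM Pim-2 with 0.05 μM fluorescein-CREBtide and 1 mM ATP in Tris pH 7.5, 5 mM MgCl2, 5 mM DTT, 2 h at 25 °C. EDTA stop, then Tb-anti-pCREB Ser133 antibody for 30 min before reading.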

Sequence of Pim-1 (P11309 whole entry): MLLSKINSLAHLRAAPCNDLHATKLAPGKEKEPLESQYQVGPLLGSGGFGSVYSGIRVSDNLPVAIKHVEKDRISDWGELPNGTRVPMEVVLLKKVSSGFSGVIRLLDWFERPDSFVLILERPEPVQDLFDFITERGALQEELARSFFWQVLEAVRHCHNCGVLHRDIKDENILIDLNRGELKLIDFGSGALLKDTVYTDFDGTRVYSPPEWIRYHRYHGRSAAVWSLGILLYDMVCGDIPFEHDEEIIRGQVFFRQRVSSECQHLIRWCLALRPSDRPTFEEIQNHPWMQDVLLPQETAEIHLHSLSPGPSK
Sequence of Pim-2 (Q9P1W9 whole entry): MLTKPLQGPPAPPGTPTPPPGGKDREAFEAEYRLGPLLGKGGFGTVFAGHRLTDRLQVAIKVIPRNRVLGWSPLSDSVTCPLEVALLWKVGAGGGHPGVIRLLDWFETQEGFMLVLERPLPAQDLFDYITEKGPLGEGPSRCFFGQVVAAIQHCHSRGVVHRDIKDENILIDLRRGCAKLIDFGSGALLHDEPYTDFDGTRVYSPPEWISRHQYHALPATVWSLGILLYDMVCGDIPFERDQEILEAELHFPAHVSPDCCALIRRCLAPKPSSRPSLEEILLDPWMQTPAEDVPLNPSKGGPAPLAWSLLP

| SMILES | IC50 (Pim-3) | IC50 (Pim-1) | IC50 (Pim-2) |
| --- | --- | --- | --- |
| CCCc1cnc2c(C(=O)Nc3cncc(C)c3N3C[C@@H](N)[C@H](O)[C@@H](C)C3)c(N)oc2c1 [Example 77, 2-Amino-N-{5-methyl-4-[(3R,4R,5S)-3-amino-4-hydroxy-5-methylpiperidin-1-yl]pyridin-3-yl}-6-propylfuro[3,2-b]pyridine-3-carboxamide] | ≤ 10 nM | ≤ 10 nM | ≤ 10 nM |
| Cc1cncc(NC(=O)c2c(N)oc3cc(Cl)cnc23)c1N1C[C@@H](N)[C@H](O)[C@@H](C)C1 [Example 78, 2-Amino-N-{5-methyl-4-[(3R,4R,5S)-3-amino-4-hydroxy-5-methylpiperidin-1-yl]pyridin-3-yl}-6-chlorofuro[3,2-b]pyridine-3-carboxamide] | ≤ 10 nM | ≤ 10 nM | 10 to 100 nM |
| Cc1cncc(NC(=O)c2c(N)oc3cc(C(F)(F)F)cnc23)c1N1C[C@@H](N)[C@H](O)[C@@H](C)C1 [Example 79, 2-Amino-N-{5-methyl-4-[(3R,4R,5S)-3-amino-4-hydroxy-5-methylpiperidin-1-yl]pyridin-3-yl}-6-(trifluoromethyl)-furo[3,2-b]pyridine-3-carboxamide] | ≤ 10 nM | ≤ 10 nM | 10 to 100 nM |
| CCCc1cnc2c(C(=O)Nc3cnccc3N3CC[C@@H](F)[C@H](N)C3)c(N)oc2c1 [Example 80, 2-Amino-N-{4-[(3R,4R)-3-amino-4-fluoro-piperidin-1-yl]pyridin-3-yl}-6-propylfuro[3,2-b]pyridine-3-carboxamide] | ≤ 10 nM | ≤ 10 nM | 100 to 1000 nM |
| Nc1oc2c(Cl)ccnc2c1C(=O)Nc1cnccc1N1CCC[C@H](N)C1 [Example 81, 2-Amino-N-{4-[(3S)-3-aminopiperidin-1-yl]pyridin-3-yl}-7-chloro-furo[3,2-b]pyridine-3-carboxamide] | ≤ 10 nM | ≤ 10 nM | ≤ 10 nM |
| CCCc1cnc2c(C(=O)Nc3cnccc3N3C[C@@H](N)[C@H](O)[C@@H](C4CC4)C3)c(N)oc2c1 [Example 82, 2-Amino-N-{4-[(3R,4R,5S)-3-amino-5-cyclopropyl-4-hydroxypiperidin-1-yl]pyridin-3-yl}-6-propylfuro[3,2-b]pyridine-3-carboxamide] | ≤ 10 nM | ≤ 10 nM | ≤ 10 nM |
| C[C@H]1C[C@@H](c2ccncc2NC(=O)c2c(N)oc3cccnc23)C[C@@H](N)[C@]1(C)O [Example 83, 2-Amino-N-(4-((1R,3R,4R,5S)-3-amino-4-hydroxy-4,5-dimethylcyclohexyl)pyridin-3-yl)furo[3,2-b]pyridine-3-carboxamide] | ≤ 10 nM | ≤ 10 nM | 100 to 1000 nM |
| CCCc1cnc2c(C(=O)Nc3cnccc3[C@H]3C[C@@H](N)[C@](C)(O)[C@@H](C)C3)c(N)oc2c1 [Example 84, 2-Amino-N-(4-((1R,3R,4R,5S)-3-amino-4-hydroxy-4,5-dimethylcyclohexyl)pyridin-3-yl)-6-propylfuro[3,2-b]pyridine-3-carboxamide] | ≤ 10 nM | ≤ 10 nM | 10 to 100 nM |
| CCCc1cnc2c(C(=O)Nc3cnccc3N3C[C@@H](N)[C@](C)(O)[C@@H](C)C3)c(N)oc2c1 [Example 85, 2-Amino-N-{4-[(3R,4R,5S)-3-amino-4-hydroxy-4,5-dimethylpiperidin-1-yl]pyridin-3-yl}-6-propylfuro[3,2-b]pyridine-3-carboxamide] | ≤ 10 nM | ≤ 10 nM | ≤ 10 nM |
| CCCc1cnc2c(C(=O)Nc3cnccc3N3C[C@@H](N)[C@@](C)(O)[C@@H](C)C3)c(N)oc2c1 [Example 86, 2-Amino-N-{4-[(3R,4S,5S)-3-amino-4-hydroxy-4,5-dimethylpiperidin-1-yl]pyridin-3-yl}-6-propylfuro[3,2-b]pyridine-3-carboxamide] | ≤ 10 nM | ≤ 10 nM | ≤ 10 nM |
| Nc1sc2cccnc2c1C(=O)Nc1cnsc1N1CCC[C@H](N)C1 [Example 88, 2-Amino-N-{5-[(3S)-3-aminopiperidin-1-yl]isothiazol-4-yl}thieno[3,2-b]pyridine-3-carboxamide] | ≤ 10 nM | ≤ 10 nM | 100 to 1000 nM |
| CC(C)c1cnc2c(C(=O)Nc3cnccc3N3C[C@@H](N)[C@H](O)[C@@H](C4CC4)C3)c(N)oc2c1 [Example 89, 2-Amino-N-{4-[(3R,4R,5S)-3-amino-5-cyclopropyl-4-hydroxypiperidin-1-yl]pyridin-3-yl}-6-isopropylfuro[3,2-b]pyridine-3-carboxamide] | ≤ 10 nM | ≤ 10 nM | ≤ 10 nM |
| Cn1ncc(NC(=O)c2c(N)oc3cc(C4CCOCC4)cnc23)c1N1C[C@@H](N)C[C@@H](C(F)(F)F)C1 [Example 90, 2-Amino-N-{5-[(3S,5R)-3-amino-5-(trifluoromethyl)piperidin-1-yl]-1-methyl-1H-pyrazol-4-yl}-6-(tetrahydro-2H-pyran-4-yl)furo[3,2-b]pyridine-3-carboxamide] | ≤ 10 nM | ≤ 10 nM | 10 to 100 nM |
| Nc1oc2cc(C3CCOCC3)cnc2c1C(=O)Nc1cnsc1N1C[C@@H](N)C[C@@H](C(F)(F)F)C1 [Example 91, 2-Amino-N-{5-[(3S,5R)-3-amino-5-(trifluoromethyl)piperidin-1-yl]isothiazol-4-yl}-6-(tetrahydro-2H-pyran-4-yl)furo[3,2-b]pyridine-3-carboxamide] | ≤ 10 nM | ≤ 10 nM | 10 to 100 nM |
| Nc1oc2cc(C3CCOCC3)cnc2c1C(=O)Nc1cnccc1N1C[C@@H](N)C[C@@H](C(F)(F)F)C1 [Example 92, 2-Amino-N-{4-[(3S,5R)-3-amino-5-(trifluoromethyl)piperidin-1-yl]pyridin-3-yl}-6-(tetrahydro-2H-pyran-4-yl)furo[3,2-b]pyridine-3-carboxamide] | ≤ 10 nM | ≤ 10 nM | ≤ 10 nM |
| CN1CCC(c2cnc3c(C(=O)Nc4cnccc4N4C[C@@H](N)C[C@@H](C(F)(F)F)C4)c(N)oc3c2)CC1 [Example 93, 2-Amino-N-{4-[(3S,5R)-3-amino-5-(trifluoromethyl)piperidin-1-yl]pyridin-3-yl}-6-(1-methylpiperidin-4-yl)furo[3,2-b]pyridine-3-carboxamide] | ≤ 10 nM | ≤ 10 nM | 10 to 100 nM |
| CN1CCC(c2cnc3c(C(=O)Nc4cnn(C)c4N4C[C@@H](N)C[C@@H](C(F)(F)F)C4)c(N)oc3c2)CC1 [Example 94, 2-Amino-N-{5-[(3S,5R)-3-amino-5-(trifluoromethyl)piperidin-1-yl]-1-methyl-1H-pyrazol-4-yl}-6-(1-methylpiperidin-4-yl)furo[3,2-b]pyridine-3-carboxamide] | ≤ 10 nM | ≤ 10 nM | 10 to 100 nM |
| C[C@@H]1C[C@H](N)CN(c2ccncc2NC(=O)c2c(N)oc3cc(C4CCOCC4)cnc23)C1 [Example 95, 2-Amino-N-{4-[(3S,5R)-3-amino-5-methylpiperidin-1-yl]pyridin-3-yl}-6-(tetrahydro-2H-pyran-4-yl)furo[3,2-b]pyridine-3-carboxamide] | ≤ 10 nM | ≤ 10 nM | 10 to 100 nM |
| C[C@@H]1C[C@H](N)CN(c2sncc2NC(=O)c2c(N)oc3cc(C4CCOCC4)cnc23)C1 [Example 96] | ≤ 10 nM | ≤ 10 nM | 10 to 100 nM |
| C[C@@H]1C[C@H](N)CN(c2ccncc2NC(=O)c2c(N)oc3cc(C4CCC4)cnc23)C1 [Example 97, 2-Amino-N-{4-[(3S,5R)-3-amino-5-methylpiperidin-1-yl]pyridin-3-yl}-6-cyclobutylfuro[3,2-b]pyridine-3-carboxamide] | ≤ 10 nM | ≤ 10 nM | ≤ 10 nM |
| Nc1oc2cc(C3CCC3)cnc2c1C(=O)Nc1cnccc1N1C[C@@H](N)C[C@@H](C(F)(F)F)C1 [Example 98, 2-Amino-N-{4-[(3S,5R)-3-amino-5-(trifluoromethyl)piperidin-1-yl]pyridin-3-yl}-6-cyclobutylfuro[3,2-b]pyridine-3-carboxamide] | ≤ 10 nM | ≤ 10 nM | ≤ 10 nM |
| Nc1oc2cc(CN3CC(F)C3)cnc2c1C(=O)Nc1cnccc1N1C[C@@H](N)C[C@@H](C(F)(F)F)C1 [Example 99, 2-Amino-N-{4-[(3S,5R)-3-amino-5-(trifluoromethyl)piperidin-1-yl]pyridin-3-yl}-6-[(3-fluoroazetidin-1-yl)methyl]furo[3,2-b]pyridine-3-carboxamide] | ≤ 10 nM | ≤ 10 nM | 10 to 100 nM |
| Nc1oc2cc(CN3CC(F)(F)C3)cnc2c1C(=O)Nc1cnccc1N1C[C@@H](N)C[C@@H](C(F)(F)F)C1 [Example 100, 2-Amino-N-{4-[(3S,5R)-3-amino-5-(trifluoromethyl)piperidin-1-yl]pyridin-3-yl}-6-[(3,3-difluoroazetidin-1-yl)methyl]furo[3,2-b]pyridine-3-carboxamide] | ≤ 10 nM | ≤ 10 nM | 10 to 100 nM |
| Nc1oc2cc(CN3CC(O)C3)cnc2c1C(=O)Nc1cnccc1N1C[C@@H](N)C[C@@H](C(F)(F)F)C1 [Example 101, 2-Amino-N-{4-[(3S,5R)-3-amino-5-(trifluoromethyl)piperidin-1-yl]pyridin-3-yl}-6-[(3-hydroxyazetidin-1-yl)methyl]furo[3,2-b]pyridine-3-carboxamide] | ≤ 10 nM | ≤ 10 nM | 10 to 100 nM |
